“Also recorded” adds a separate entry of the source. Like-named read-outs stand apart in the source and are kept apart here.

Results on six molecules are retold here after patent US5639782A, “Neolignan derivatives as platelet activating factor receptor antagonists and 5-lipoxygenase inhibitors” (Center for Innovative Technology, priority 1994, dated 1997).

Assay [1] relates to PAF induced platelet aggregation (human platelets). In words: PAF induced platelet aggregation assay. Format: cell-based. Particulars: for PAF antagonist activity (in words): in vitro. On the procedure:
In vitro experiments have been conducted to determine the PAF and 5-lipoxygenase inhibitory activity of a variety of synthesized, neolignan derivative compounds. In particular, the novel compounds are either 2,4-diaryl-1,3-dithiolanes or futoenone derivatives. PAF antagonist activity was determined according to the method of Shen et al., in Methods of Ezymology, Vol. 187, 447-449 (1990), and that article is herein incorporated by reference. The 5-lipoxygenase inhibitory activity was determined according to an assay discussed below.
The following outlines a platelet aggregation assay procedure. Blood is obtained from human volunteers who have not ingested aspirin or steroid drugs for ten days and is stored with a 3.8% trisodium citrate anticoagulant. Heparin is not used as the anticoagulant since it interferes with platelet aggregation. Citrated blood is centrifuged at 220 g for 10 min. at room temperature to obtain platelet-rich plasma (PRP). The platelet count is determined and is adjusted to […]. Platelet-poor plasma (PPP) is prepared by centrifuging PRP at 1000 g for 20 min. to pelletize the platelets. PPP is used to calibrate the aggregometer. Washed platelet suspension (WPS) is prepared from PRP by underlayering the latter with Ficoll-Paque (9:2, v/v) and centrifuging at 750 g for 15 min. at room temperature. The platelets form a band between the plasma and the separation medium and are carefully collected and suspended in Tyrode's solution (in mM: NaCl, 137; KCl, 2.7; NAHCO3, 11.9; NaH2 -PO4, 0.42; MgCl2, 1.0; CaCl2, 1.0; HEPES, 5.0; and dextrose, 1 g/liter, with 0.25% BSA, w/v, pH 7.4). Prostacyclin (PGI2) (1 ng/ml) can be added to the suspension to prevent platelet activation; however, it should be understood that the inhibitory activity of PGI2 disappears completely 10 min. from the time of addition at room temperature. The suspension is then spun at 1000 g for 10 min. and the pellet is resuspended in Tyrode's buffer for platelet aggregation. The suspensions are maintained at 37° C. and stirred constantly at 1000 revolutions per min (rpm). A known amount of PAF, such as 0.11 μM PAF, is added to the suspension three to five minutes after the addition of the potential PAF antagonists (the synthesized compounds). […] To obtain the IC50 value, varying concentrations of a potential antagonist need to be added to the test suspensions with the percentage inhibition being determined for each concentration of the antagonist, and the IC50 value is obtained from a plot of the percentage inhibition versus concentration of the antagonist.

The next assay has as its system PAF receptor. Particulars: literature report; cited from earlier work.
The mark [2] stands for this setting: PAF induced platelet aggregation.

For the molecule `COc1cc(C2CSC(c3cc(OC)c(OC)c(OC)c3)O2)cc(OC)c1OC` (stereo not shown) [oxathiolane (F')], the “PAF antagonist activity (in words)” value in assay [1] (setting [2]) is given as “much weaker antagonist of PAF-induced platelet aggregation than the corresponding dithiolane compound”.

As for `CCCOc1c(OC)cc(C2CCC(c3cc(OC)c(OC)c(OC)c3)O2)cc1S(C)(=O)=O` [L-659,989], the “PAF receptor antagonism (in words)” value in the assay with PAF receptor is reported as “potent PAF receptor antagonists”.

On to `COC1=C[C@]23C[C@H](C[C@H](c4ccc5c(c4)OCO5)[C@H]2C)OC3=CC1=O` [futoenone], for which the IC50 – broadly, the concentration needed to halve the response being measured – in assay [1] (human platelet assay in PRP, 0.1 μM PAF, read-out: IC50 value for platelet aggregation induced by 0.1 μM PAF) was roughly 13.6 µM. In assay [1] (setting [2]), the “PAF antagonist activity (in words)” value is “posesses PAF antagonist activity; also recorded: potent PAF antagonist activity”.

On to `COc1cc(C2CSC(c3cc(OC)c(OC)c(OC)c3)S2)cc(OC)c1OC` (stereo not drawn) [compound 1, Cis and trans-2,4-bis-(3,4,5-trimethoxyphenyl)-1,3-dithiolane], for which, in assay [1] (Homo sapiens, PAF induced platelet aggregation, read-out: IC50 value, PAF-induced platelet aggregation), the IC50 was less than 1 µM.

With `COc1cc(C2CCC(c3cc(OC)c(OC)c(OC)c3)O2)cc(OC)c1OC` [L-652,731], the “PAF receptor antagonism (in words)” value in the assay on PAF receptor is listed as “potent PAF receptor antagonists”.

With `C=CCC1=C[C@@]2(OC)C(=CC1=O)O[C@H](c1ccc(OC)c(OC)c1)[C@H]2C` [kadsurenone], the “PAF receptor antagonism (in words)” value in the assay with PAF receptor is “potent, specific and competitive inhibitor of PAF at the receptor level”.
